BigSolDB 2.1

CCCCS(=O)(=O)N[C@@H](Cc1ccc(OCCCCC2CCNCC2)cc1)C(=O)O
solubility (mole fraction)
Conditions | 278.15 K | 283.15 K | 288.15 K | 293.15 K | 298.15 K | 303.15 K | 308.15 K | 313.15 K | 318.15 K | 323.15 K
in ethanol | 0.000129 | 0.000156 | 0.000183 | 0.000216 | 0.00025 | 0.000288 | 0.000329 | 0.000373 | 0.000427 | 0.00049
in ethylene glycol | 4.7e-05 | 5.7e-05 | 6.77e-05 | 8.02e-05 | 9.46e-05 | 0.000109 | 0.000125 | 0.000142 | 0.00016 | 0.000181
in isopropanol | 7.48e-05 | 9.32e-05 | 0.000108 | 0.00013 | 0.000153 | 0.000176 | 0.0002 | 0.00023 | 0.000265 | 0.000301
in methanol | 0.000306 | 0.000375 | 0.000443 | 0.00052 | 0.000617 | 0.00071 | 0.000836 | 0.000957 | 0.0011 | 0.00125
in water | 9.32e-07 | 1.1e-06 | 1.32e-06 | 1.55e-06 | 1.83e-06 | 2.08e-06 | 2.42e-06 | 2.75e-06 | 3.14e-06 | 3.59e-06
